Laboratory results taken from patent US20170260134A1, “Ceramide Analogs” (Augusta University Research Institute, Inc., priority 2016, published 2017).
Entries after “also recorded” stand apart in the source; their conditions may differ.

Tests used:
[1] = system: SW480, RKO and HCT116 cells; experiment: Tumor cell apoptosis assay: ceramide analog at sublethal dose plus FasL (Annexin V/PI); assay type: cell-based, human; conditions: for increase of cell sensitivity to FasL-induced apoptosis: sublethal dose of analog (10 μM) plus FasL (10 ng/ml SW480, HCT; 100 ng/ml RKO); for activity in human colon carcinoma: summary statement
Description: FIG. 5A is a bar graph of Percent Apoptotic cell death of SW480 cells treated with the indicated ceramide analogs (10 μM), with (10 ng/ml) or without FasL and treated with FasL alone. FIG. 5B is a bar graph of Percent Apoptotic cell death of RKO cells treated with the indicated ceramide analogs (10 μM), with (100 ng/ml) or without FasL and treated with FasL alone. FIG. 5C is a bar graph of Percent Apoptotic cell death of HCT cells treated with the indicated ceramide analogs (10 μM), with (10 ng/ml) or without FasL and treated with FasL alone. % apoptotic cell death was calculated as % Annexin V^+PI^+ cells in the presence of ceramide analogs plus MegaFasL−% Annexin V^+PI^+ cells in the control group. Column: mean; Bar: SD.
Tumor cells were cultured in the presence of MegaFasL at the indicated concentrations as previously described Hu, X. et al. Deregulation of apoptotic factors Bcl-xL and Bax confers apoptotic resistance to myeloid-derived suppressor cells and contributes to their persistence in cancer. J Biol Chem 288, 19103-19115, doi:10.1074/jbc.M112.434530M112.434530 [pii] (2013). FasL (Mega-Fas Ligand®, kindly provided by Drs. Steven Butcher and Lars Damstrup at Topotarget A/S, Denmark) is a recombinant fusion protein that consists of three human FasL extracellular domains linked to a protein backbone comprising the dimmer-forming collagen domain of human adiponectin. The Mega-Fas Ligand was produced as a glycoprotein in mammalian cells using Good Manufacturing Practice compliant process in Topotarget A/S (Copenhagen, Denmark). For tumor cell apoptosis analysis, cells were stained with Alexa Fluor 647 Annexin V (Biolegend) in Annjixin V-binding buffer (10 mM Hepes, pH 7.4, 140 mM NaCl, 2.5 mM CaCl2) for 30 min at 4° C. Propidium Iodide was then added to the cell suspension, and cells were analyzed by flow cytometry as previously described Bardhan, K. et al. IFNgamma induces DNA methylation-silenced GPR109A expression via pSTAT1/p300 and H3K18 acetylation in colon cancer. Cancer Immunol Res, doi:canimm.0164.2014 [pii]2326-6066.CIR-14-0164 [pii] 10.1158/2326-6066.CIR-14-0164 (2015).
Next, the efficacy of the ceramide analogs was tested at their sublethal doses in enhancement of FasL-induced apoptosis using SW480, RKO and HCT116 cells. Tumor cells were treated with a sublethal dose of each of these 20 ceramide analogs along or ceramide analog plus FasL, and analyzed for apoptosis. […] Therefore, six novel ceramide analogs were identified that can effectively enhance the efficacy of FasL-induced apoptosis in human colon carcinoma cells.

[2] = system: CT26 cells; experiment: CT26 colon carcinoma lung metastasis in BALB/c mice; assay type: in vivo; conditions: 25 and 50 kg body weight, intraperitoneal, days 8, 10 and 12 after tumor injection
Description: FIG. 8 is a bar graph of number of tumor nodules/lung in lungs taken from BALB/c mice injected with CT26 cells (2.5×10^5 cell per mouse). Tumor-bearing mice were treated with the indicated 5 ceramide analogs (25 and 50 […]) by intraperitoneal injection at days 8, 10 and 12 after tumor injection. CT26 cells (2.5×10^5 cell per mouse) were injected to BALB/c mice on […]. Tumor-bearing mice were treated with the 5 ceramide analogs (25 and 50 […]) by intraperitoneal injection at days 8, 10 and 12 after tumor injection. […]. Mouse lungs were inflated with ink and fixed. […] White dots are tumor nodules. Bottom panel: quantification of tumor nodule number in the lungs.

[3] = system: SW480 cells; experiment: Cell viability (MTT) assay, cytotoxicity of ceramide analogs; assay type: cell-based, human; conditions: three days, at the doses tested
Description: FIG. 4 is a bar graph of Percent Cell Viability (MTT assay) showing. cytotoxicity of the indicated ceramide analogs to human colon carcinoma cells. Human colon carcinoma SW480 cells were cultured in the presence of ceramide analogs at the indicated concentrations for three days. Cell viability was determined by MTT assays. % cell viability of control was set at 100% and cell viability of treatment groups was calculated as % of the control groups. IC50 was calculated using GraphPad Prism program.
Cells were seeded in 96-well plates at 2×10^3 cells/well in 100 μl culture medium for 3 days. Cell viability assays were performed using the MTT cell proliferation assay kit (ATCC, Manassas, Va.) according to the manufacturer's instructions.
The structures and functions of ceramide analogs Cheng, J. C. et al. Radiation-induced acid ceramidase confers prostate cancer resistance and tumor relapse. J Clin Invest 123, 4344-4358, doi:10.1172/JCI6479164791 [pii] (2013); and Paschall, A. V. et al. Ceramide targets xIAP and cIAP1 to sensitize metastatic colon and breast cancer cells to apoptosis induction to suppress tumor progression. BMC Cancer 14, 24, doi:10.1186/1471-2407-14-241471-2407-14-24 [pii] (2014) were analyzed and synthesized twenty ceramide analogs to be developed into Fas sensitizers (Supplemental Table 1). […]

[4] = system: CT26 tumor cells; experiment: CTL cytotoxicity assay with perforin-deficient CTLs (pfpCTL); assay type: cell-based; conditions: analog alone at the dose used
Description: FIG. 7A is a line graph of percent tumor cell lysis verus pfpCTLs E/T ratio. Cells were gated for CFSE^+ tumor cells. The gated cells were then analyzed for PI^+ cells. % tumor cell lysis was calculated as % CFSE^+PI^+ cells in the presence of CTLs−% CFSE^+PI^+ cells in the absence of CTLs. FIG. 7B is a bar graph of percent tumor cell lysis Cells were gated for CFSE^+ tumor cells. The gated cells were then analyzed for PI^+ cells. % tumor cell lysis was calculated as % CFSE^+PI^+ cells in the presence of ceramide analogs or ceramide analogs plus pfpCTLs−% CFSE^+PI^+ cells in the absence of ceramide analogs or ceramide analogs plus pfpCTLs. Column: mean; Bar: SD. Bolded ** indicated p<0.01 between ceramide analog+pfpCTLs group and pfpCTLs only group, and green ** indicates p<0.01 between ceramide analog+pfpCTLs group and ceramide analog only group. Column: mean; Bar: SD.
Perforin-deficient CTLs were generated and maintained by weekly stimulation with AH1 peptide as previously described Liu, K., Caldwell, S. A., Greeneltch, K. M., Yang, D. & Abrams, S. I. CTL Adoptive Immunotherapy Concurrently Mediates Tumor Regression and Tumor Escape. J Immunol 176, 3374-3382 (2006). […] Cells were analyzed immediately by flow cytometry. CFSE^+ tumor cells were gated and analyzed for PI^+ cells. […]

Structure (SMILES) | increase of cell sensitivity to FasL-induced apoptosis [1] | activity in human colon carcinoma [1] | established colon carcinoma lung metastasis (tumor nodules/lung) [2] | cytotoxicity [3] | cytotoxicity to CT26 tumor cells [4]
CCCCCCCCCCCCCNC(=O)[C@@H](NC(=O)c1cc2c(F)cccc2[nH]1)[C@@H](C)O [IG4] | effectively increase; also recorded: significant efficacy | potent activity | suppress |  | 
CCCCCCCCCCCCN(C)C(=O)[C@@H](NC(=O)c1cc2cc(Br)ccc2[nH]1)[C@@H](C)O [IG10] |  |  |  | no cytotoxicity | 
CCCCCCCC/C=C\CCCCCCCC(=O)N[C@H](CO)[C@@H](O)c1ccc([N+](=O)[O-])cc1 [IG17, N-((1S,2R)-1,3-dihydroxy-1-(4-nitrophenyl)propan-2-yl)oleamide] | effectively increase; also recorded: significant efficacy | potent activity | suppress |  | 
CCCCCCCCCCCCN(C)C(=O)[C@@H](NC(=O)c1cc2c(F)cccc2[nH]1)[C@@H](C)O [IG19] | effectively increase; also recorded: significant efficacy |  | suppress |  | 
CCCCCCCCCCCCN(C)C(=O)[C@@H](NC(=O)c1cc2cc(C)ccc2[nH]1)[C@@H](C)O [IG9] |  | potent activity |  |  | 
CCCC/C=C/CCCCCCCC(=O)N[C@H](CO)[C@@H](O)c1ccc([N+](=O)[O-])cc1 [IG20, (E)-N-((1S,2R)-1,3-dihydroxy-1-(4-nitrophenyl)propan-2-yl)tetradec-9-enamide] |  |  |  | no cytotoxicity | 
CCCCCCCCCCCCCNC(=O)[C@@H](NC(=O)c1cc2cc(OC)ccc2[nH]1)[C@@H](C)O [IG7] | effectively increase; also recorded: significant efficacy | potent activity | suppress |  | 
CCCCCCCCCCCCN(C)C(=O)[C@@H](NC(=O)c1cc2cc(F)ccc2[nH]1)[C@@H](C)O [IG14] | effectively increase; also recorded: significant efficacy | potent activity |  |  | 
CCCCCCCCCCCCCNC(=O)[C@@H](NC(=O)c1cc2c(OC)cccc2[nH]1)[C@@H](C)O [IG8] | effectively increase; also recorded: significant efficacy | potent activity |  |  | high cytotoxicity
